“And” between values parts separate entries of the source, which are not always exact repeats. Equal values may be shown once. Read-outs that look alike come from different tables or passages of the source.
What was measured:
human TLR7 = biological target: T1, human TLR7 (Homo sapiens, UniProt Q9NYK1); assay: NFkB-luc reporter in HEK293 cells transfected with human TLR7; type: cell-based
T1 construct: expressed in transfected cells; host or cells: HEK293 (pIRES, G-418 selected)
T1 sequence (Q9NYK1 27-1049): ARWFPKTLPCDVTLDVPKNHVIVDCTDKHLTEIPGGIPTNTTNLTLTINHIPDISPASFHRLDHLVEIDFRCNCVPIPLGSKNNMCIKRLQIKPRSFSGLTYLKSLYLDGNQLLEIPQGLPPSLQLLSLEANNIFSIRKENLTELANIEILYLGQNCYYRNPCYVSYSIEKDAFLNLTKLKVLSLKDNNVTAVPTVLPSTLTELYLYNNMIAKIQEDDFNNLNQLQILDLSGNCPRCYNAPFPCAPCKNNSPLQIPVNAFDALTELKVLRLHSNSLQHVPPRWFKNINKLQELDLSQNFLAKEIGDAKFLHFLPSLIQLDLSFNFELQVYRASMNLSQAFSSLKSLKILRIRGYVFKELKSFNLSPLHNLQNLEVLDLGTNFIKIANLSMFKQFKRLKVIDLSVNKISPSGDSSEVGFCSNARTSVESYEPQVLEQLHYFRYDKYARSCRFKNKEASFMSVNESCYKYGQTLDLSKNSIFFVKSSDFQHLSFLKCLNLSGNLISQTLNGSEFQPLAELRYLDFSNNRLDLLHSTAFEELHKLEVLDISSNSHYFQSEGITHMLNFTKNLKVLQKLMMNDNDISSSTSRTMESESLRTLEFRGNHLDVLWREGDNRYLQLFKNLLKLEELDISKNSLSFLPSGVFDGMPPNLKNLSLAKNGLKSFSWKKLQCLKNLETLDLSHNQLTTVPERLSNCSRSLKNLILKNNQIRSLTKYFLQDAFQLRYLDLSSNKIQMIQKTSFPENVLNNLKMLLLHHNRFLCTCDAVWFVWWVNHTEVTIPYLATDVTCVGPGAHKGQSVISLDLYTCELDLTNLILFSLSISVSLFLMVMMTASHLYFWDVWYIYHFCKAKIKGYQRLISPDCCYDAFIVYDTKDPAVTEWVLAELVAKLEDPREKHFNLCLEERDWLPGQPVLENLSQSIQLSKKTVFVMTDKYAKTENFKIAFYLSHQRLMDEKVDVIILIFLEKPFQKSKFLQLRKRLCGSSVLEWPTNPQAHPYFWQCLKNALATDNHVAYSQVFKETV
Experimental: (§1) HEK 293 cells were cultured in Minimum Essential Medium (MEM) with 2 mM L-glutamine and Earle's Balanced Salt Solution (Invitrogen Corp., Rockville, Md.) adjusted to contain 1.5 g/L sodium bicarbonate, 0.1 mM non-essential amino acids, and 1.0 mM sodium pyruvate, 90%; heat-inactivated fetal calf serum, 10%. The cells were incubated at 37° C., 8% CO2.
(§2) The cells were co-transfected with human TLR7 or Empty Vector control pIRES (BD Biosciences Clontech, Palo Alto, Calif.) along with NFkB-luc reporter (Stratagene, La Jolla, Calif.) in a 10:1 ratio with Fugene 6 transfection reagent (Roche Diagnostics Corp., Indianapolis, Ind.) following the manufacturer's instructions.
(§3) The cells were stimulated with 1 μL of IRM compounds at 1 mM in DMSO (final concentration of 10 μM) or 1 μL DMSO as a control. The plates were then incubated an additional 16 hours at 37° C., 5% CO2. The luciferase signal was read using the LucLite kit (Packard Instrument Co., Meriden, Conn.). The luminescence was measured on the Topcount NXT (Packard Instrument Co., Meriden, Conn.).

NF-κB = assay: NFkB-luc reporter in HEK293 cells with empty vector control; type: cell-based, human; details: luciferase signal; for fold induction at 10 µM: Homo sapiens, HEK293, 16 h, read-out: Fold Increase Over DMSO Control, HEK 293 Vector; for Fold Increase Over DMSO Control, HEK 293 Vector: 10 μM, 16 hours
Experimental: as §1, §2, §3

TLR6 = biological target: T2, TLR6 (Homo sapiens, UniProt Q9Y2C9); assay: Anti-TLR6 antibody inhibition of TNF-α production by human PBMC; type: cell-based; details: preincubation with anti-TLR6 antibodies; compared with LPS
T2 construct: Peripheral blood mononuclear cells (PBMCS) were isolated; endogenous in cells; host or cells: human PBMC from healthy volunteers
Experimental: Peripheral blood mononuclear cells (PBMCS) were isolated with the Histopaque HybriMax—1077 density gradient (Sigma Chemical Co., St. Louis, Mo.) from healthy human volunteers after obtaining informed consent.
PBMC were resuspended in cRPMI at a concentration of 10^6 cells/ml. 100 μl of cells (10^5 cells) were then added to individual wells of a 96 well U-bottom plate (BD Biosciences Discovery Labware, Bedford, Mass.). Solutions containing cRPMI with 40 μg/ml of the affinity purified anti-TLR6 polyclonal antibody were prepared. 50 μl of the antibody solution was added to cells and incubated for 30 minutes. […] Cells were incubated for 18 hours at 37° C. in an atmosphere of 5% CO2/95% air. Supernatants were collected and frozen at −20° C. for cytokine analysis. The data are presented as % inhibition relative to control.
Data shown are representative of six independent experiments.

[1] = luciferase signal, 10 μM, 16 hours, TLR7 cells

T2 sequence (Q9Y2C9 32-796): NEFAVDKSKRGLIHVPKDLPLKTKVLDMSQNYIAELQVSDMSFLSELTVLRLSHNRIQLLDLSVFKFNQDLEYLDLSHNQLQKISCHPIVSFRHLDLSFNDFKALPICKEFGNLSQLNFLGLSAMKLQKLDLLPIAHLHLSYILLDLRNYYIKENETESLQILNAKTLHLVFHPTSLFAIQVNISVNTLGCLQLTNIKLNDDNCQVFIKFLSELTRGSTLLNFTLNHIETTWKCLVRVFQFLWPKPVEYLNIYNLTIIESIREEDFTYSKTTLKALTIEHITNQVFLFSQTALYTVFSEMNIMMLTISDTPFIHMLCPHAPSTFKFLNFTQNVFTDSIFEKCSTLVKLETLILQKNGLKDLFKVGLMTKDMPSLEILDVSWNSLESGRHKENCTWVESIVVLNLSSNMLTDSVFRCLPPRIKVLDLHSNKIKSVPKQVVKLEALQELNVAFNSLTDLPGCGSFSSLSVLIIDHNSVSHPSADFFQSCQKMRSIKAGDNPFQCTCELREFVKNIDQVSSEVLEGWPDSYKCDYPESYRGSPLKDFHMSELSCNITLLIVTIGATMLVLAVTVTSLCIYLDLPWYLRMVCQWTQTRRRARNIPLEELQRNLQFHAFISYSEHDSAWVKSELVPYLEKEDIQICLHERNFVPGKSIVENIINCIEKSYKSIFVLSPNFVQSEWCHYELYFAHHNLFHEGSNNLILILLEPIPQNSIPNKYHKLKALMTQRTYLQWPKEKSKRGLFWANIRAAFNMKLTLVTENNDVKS
T2 sequence (O60603 21-784 partner): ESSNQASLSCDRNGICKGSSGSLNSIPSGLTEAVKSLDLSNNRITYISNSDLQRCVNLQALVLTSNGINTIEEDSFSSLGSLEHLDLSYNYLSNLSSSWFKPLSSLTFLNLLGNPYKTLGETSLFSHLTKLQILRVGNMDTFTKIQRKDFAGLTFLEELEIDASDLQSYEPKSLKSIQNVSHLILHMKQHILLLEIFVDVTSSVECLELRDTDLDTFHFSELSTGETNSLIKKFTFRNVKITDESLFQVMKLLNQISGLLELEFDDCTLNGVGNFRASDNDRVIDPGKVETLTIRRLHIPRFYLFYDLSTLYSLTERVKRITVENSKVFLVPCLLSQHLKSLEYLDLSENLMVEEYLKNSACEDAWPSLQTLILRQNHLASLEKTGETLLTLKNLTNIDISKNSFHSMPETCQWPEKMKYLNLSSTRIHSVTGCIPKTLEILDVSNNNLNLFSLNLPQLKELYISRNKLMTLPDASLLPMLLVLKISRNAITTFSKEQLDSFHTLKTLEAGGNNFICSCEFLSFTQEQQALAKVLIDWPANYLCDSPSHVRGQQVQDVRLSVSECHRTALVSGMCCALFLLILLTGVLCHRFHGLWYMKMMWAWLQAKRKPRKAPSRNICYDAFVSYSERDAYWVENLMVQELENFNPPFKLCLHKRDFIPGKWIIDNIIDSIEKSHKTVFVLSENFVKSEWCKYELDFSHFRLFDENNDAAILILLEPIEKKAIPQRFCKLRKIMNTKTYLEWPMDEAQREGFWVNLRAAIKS

| Molecule | Fold Increase Over DMSO Control, HEK293 TLR7 (human TLR7; [1]) | fold induction at 10 µM (NF-κB) | Fold Increase Over DMSO Control, HEK293 TLR7 (human TLR7) [fold] | Fold Increase Over DMSO Control, HEK 293 Vector (NF-κB) [fold] | Effect of anti-TLR6 antibodies on stimulus-induced TNF-α production (in words) (TLR6) |
| --- | --- | --- | --- | --- | --- |
| Cc1nc2c(N)nc3ccccc3c2n1CC(C)(C)O.Cl [IRM 1, 4-amino-α,α,2-trimethyl-1H-imidazo[4,5-c]quinoline-1-ethanol hydrochloride] | 3.75 fold | 0.86 |  |  |  |
| Nc1nc2ccccc2c2c1ncn2CCOCCCc1cccnc1 [IRM 4, 1-{2-[3-(3-pyridyl)propoxy]ethyl}-1H-imidazo[4,5-c]quinolin-4-amine] | 4.06 fold | 1 |  |  |  |
| CCCCc1nc2c(N)nc3ncccc3c2n1CC(C)C [IRM 5, 2-butyl-1-(2-methylpropyl)-1H-imidazo[4,5-c][1,8]naphthyridin-4-amine] | 1.13 fold | 1.21 |  |  |  |
| CCCCc1nc2c(N)nc3cnccc3c2n1CC(C)C [IRM 6, 2-butyl-1-(2-methylpropyl)-1H-imidazo[4,5-c][1,7]naphthyridin-4-amine] | 1.25 fold | 0.95 |  |  |  |
| CCCCc1nc2c(N)nc3cccnc3c2n1CC(C)C [IRM 7, 2-butyl-1-(2-methylpropyl)-1H-imidazo[4,5-c][1,5]naphthyridin-4-amine] | 3.06 fold | 1.3 |  |  |  |
| CCCCc1nc2c(N)nc3c(c2n1CC(C)C)NCCC3 [IRM 8, 2-butyl-6,7,8,9-tetrahydro-1-(2-methylpropyl)-1H-imidazo[4,5-c][1,5]naphthyridin-4-amine] | 4.59 fold | 0.91 |  |  |  |
| CCOCc1nc2c(N)nc3c(c2n1CC(C)(C)O)CCCC3 [IRM 9, 4-amino-2-ethoxymethyl-α,α-dimethyl-6,7,8,9-tetrahydro-1H-imidazol[4,5-c]quinoline-1-ethanol] |  |  | 4.67 | 0.81 |  |
| C[C@H](c1ccccc1)n1cnc2c(N)nc3ccccc3c21 [IRM 10, 1-[R(+)-1-phenylethyl]-1H-imidazo[4,5-c]quinolin-4-amine] | 2.55 fold |  |  | 1.10 |  |
| CCCCc1nc2c(N)nc3cccnc3c2s1 [IRM 11, 2-butyl[1,3]thiazolol[4,5-c][1,5]naphthyridin-4-amine] | 1.06 fold |  |  | 1.35 |  |
| CCCCc1nc2c(N)nc3ccccc3c2n1CCCCNS(C)(=O)=O [IRM 12, N-[4-(4-amino-2-butyl-1H-imidazo[4,5-c]quinolin-1-yl)butyl]methanesulfonamide] | 15.33 fold | 1.33 |  |  |  |
| Nc1nc2ccccc2c2c1nc1n2CCCC1 [IRM 13, 8,9,10,11-tetrahydropyrido[1′,2′:1,2]imidazol[4,5-c]quinolin-6-amine] | 2.39 fold |  |  | 1.20 |  |
| COCCc1nc2c(N)nc3ccccc3c2n1CCCCNC(=O)c1ccc(-n2cccc2)nc1 [IRM 14, N^3-{4-[4-amino-2-(2-methoxyethyl)-1H-imidazo[4,5-c]quinolin-1-yl]butyl}-6-(1H-1-pyrrolyl)nicotinamide] | 1.37 fold | 1.31 |  |  |  |
| CCCCc1nc2c(N)nc3ccccc3c2n1CCNS(C)(=O)=O [IRM 15, N-[2-(4-amino-2-butyl-1H-imidazo[4,5-c]quinolin-1-yl)ethyl]methanesulfonamide] | 1.88 fold | 1.04 |  |  |  |
| COCCc1nc2c(N)nc3ccccc3c2n1CCCCNC(=O)N1CCOCC1 [IRM 16, N-{4-[4-amino-2-(2-methoxyethyl)-1H-imidazo[4,5-c]quinolin-1-yl]butyl}morpholine-4-carboxamide] | 1.51 fold | 0.98 |  |  |  |
| CCCCc1nc2c(N)nc(C)c(C)c2n1CCCCNS(C)(=O)=O [IRM 17, N-[4-(4-amino-2-butyl-6,7-dimethyl-1H-imidazo[4,5-c]pyridin-1-yl)butyl]methanesulfonamide] | 2.79 fold and 2.71 fold | 0.99 |  |  |  |
| Peptidoglycan |  |  |  |  | inhibited by the antibodies to a greater extent |

Source: US20040014779A1, “Methods and compositions related to IRM compounds and toll-like recptor pathways” (3M Innovative Properties Company, priority 2001, published 2004)
